Tests used:
Q725C mutant Pgp [1] = target: T1, Q725C mutant Pgp (Homo sapiens, UniProt P08183, C1074A/C1125A/C1227A/C137A/C431A/C717A/C956A/Q725C); assay: Transport of fluorescent substrates in BacMam-transduced HeLa cells (flow cytometry); details: compared to cysless WT Pgp (taken as 100%), calcein-AM 0.5 µM 10 min, Rh123 […], other substrates 0.5 µM 45 min
Experimental: (§1) The BacMam-Pgp virus (encoding cysless WT and the mutant Pgps) was added to 2.5 million HeLa cells at a titer of 50-60 viral particles per cell in 3 ml of DMEM and incubated at 37°C [30]. After 1 hr DMEM was added to make a total of 20 ml in the flask and these infected cells were further incubated for 3-4 hrs. 10 mM butyric acid was then added and the cells continued to incubate at 37°C. After 24 hrs, the cells were trypsinized, washed, counted and analyzed by flow cytometry for cell surface expression and the function of the wildtype and mutant Pgps.
(§2) The transport function of cysless WT and mutant Pgps was determined using fluorescent compounds with flow cytometry as previously described. […] Cells were washed with cold PBS and resuspended in PBS containing 0.1% BSA before analysis.

Y307C mutant Pgp [2] = target: T2, Y307C mutant Pgp (Homo sapiens, UniProt P08183, C1074A/C1125A/C1227A/C137A/C431A/C717A/C956A/Y307C); assay: as above; details: compared to cysless WT Pgp (taken as 100%), calcein-AM 0.5 µM 10 min, Rh123 […], other substrates 0.5 µM 45 min
Experimental: as §1, §2

F343C mutant Pgp [3] = target: T3, F343C mutant Pgp (Homo sapiens, UniProt P08183, C1074A/C1125A/C1227A/C137A/C431A/C717A/C956A/F343C); assay: as above; details: compared to cysless WT Pgp (taken as 100%), calcein-AM 0.5 µM 10 min, Rh123 […], other substrates 0.5 µM 45 min
Experimental: as §1, §2

F978C mutant Pgp = F978C mutant Pgp (Homo sapiens, UniProt P08183, C1074A/C1125A/C1227A/C137A/C431A/C717A/C956A/F978C); assay: as above; details: compared to cysless WT Pgp (taken as 100%), calcein-AM 0.5 µM 10 min, Rh123 […], other substrates 0.5 µM 45 min
Experimental: as §1, §2

F728C mutant Pgp [4] = target: T4, F728C mutant Pgp (Homo sapiens, UniProt P08183, C1074A/C1125A/C1227A/C137A/C431A/C717A/C956A/F728C); assay: as above; details: compared to cysless WT Pgp (taken as 100%), calcein-AM 0.5 µM 10 min, Rh123 […], other substrates 0.5 µM 45 min
Experimental: as §1, §2

Q725C/V982C mutant Pgp [5] = target: T5, Q725C/V982C mutant Pgp (Homo sapiens, UniProt P08183, C1074A/C1125A/C1227A/C137A/C431A/C717A/C956A/Q725C/V982C); assay: as above; details: compared to cysless WT Pgp (taken as 100%), calcein-AM 0.5 µM 10 min, Rh123 […], other substrates 0.5 µM 45 min
Experimental: as §1, §2

F343C/V982C mutant Pgp [6] = target: T6, F343C/V982C mutant Pgp (Homo sapiens, UniProt P08183, C1074A/C1125A/C1227A/C137A/C431A/C717A/C956A/F343C/V982C); assay: as above; details: compared to cysless WT Pgp (taken as 100%), calcein-AM 0.5 µM 10 min, Rh123 […], other substrates 0.5 µM 45 min
Experimental: as §1, §2

V982C mutant Pgp [7] = target: T7, V982C mutant Pgp (Homo sapiens, UniProt P08183, C1074A/C1125A/C1227A/C137A/C431A/C717A/C956A/V982C); assay: as above; details: compared to cysless WT Pgp (taken as 100%), calcein-AM 0.5 µM 10 min, Rh123 […], other substrates 0.5 µM 45 min
Experimental: as §1, §2

all mutant Pgps = assay: Vanadate-sensitive ATP hydrolysis of Pgp in crude membranes; assay type: biochemical, human
Experimental: Crude membranes were prepared as described previously

[8] = target: T8, Y307C/Q725C/V982C mutant Pgp (Homo sapiens, UniProt P08183, C1074A/C1125A/C1227A/C137A/C431A/C717A/C956A/Q725C/V982C/Y307C); assay: in vitro
Experimental: (§3) Then, samples were photocrosslinked with IAAP at 4°C as described in the Materials and Methods section. Mean values from at least three independent experiments are plotted and error bars depict SD.
(§4) High-Five insect cells (Invitrogen, Carlsbad, CA) were infected with recombinant baculovirus carrying the human MDR1 cDNA cysless WT and various mutant Pgps, with a His6-tag at the C-terminus as described previously. Crude membranes were prepared as described previously
(§5) The crude membranes of High-Five insect cells containing 60-80 µg protein per 100 µL in 50 mM MES-Tris buffer (pH 6.8), were incubated for 10 minutes at 37°C in the absence (control) and presence of compound(s) at indicated concentration.

cysless WT Pgp [9] = target: T9, cysless WT Pgp (Homo sapiens, UniProt P08183, C1074A/C1125A/C1227A/C137A/C431A/C717A/C956A); assay: in vitro
Experimental: as §3, §4, §5

F728C/V982C mutant Pgp = F728C/V982C mutant Pgp (Homo sapiens, UniProt P08183, C1074A/C1125A/C1227A/C137A/C431A/C717A/C956A/F728C/V982C); assay: Vanadate-sensitive ATP hydrolysis of Pgp in crude membranes; details: Verapamil 50 µM, QZ59-SSS 1 µM, Valinomycin 10 µM, FSBA 1 mM
Experimental: (§6) Vanadate-sensitive Pgp-mediated ATP hydrolysis was measured as described in Materials and Methods. […] At least two independent experiments were carried out for each mutant with indicated compounds. Additional information including standard deviations, fold-stimulation or % inhibition, and number of experiments is given in the section (Tables S2 and S3).
as §4
(§7) Crude membranes (10-25 µg protein/100 µ L) from High Five insect cells expressing cysless WT or mutant Pgp were incubated in the presence and absence of sodium orthovanadate (0.3 mM), in a buffer containing 50 mM MES-Tris pH 6.8, 50 mM KCl, 5 mM NaN3, 1 mM EGTA, 1 mM ouabain, 2 mM DTT, and 10 mM MgCl2. […] The reaction was initiated by addition of 5 mM ATP and continued for 20 min at 37°C. […] The reaction was stopped by addition of 100 µ L of 5% SDS and the amount of inorganic phosphate generated was quantified with a colorimetric reaction, as previously described.

Q725C mutant Pgp [10] = target: T1, Q725C mutant Pgp; assay: as above; details: Verapamil 50 µM, QZ59-SSS 1 µM, Valinomycin 10 µM, FSBA 1 mM
Experimental: as §6, §4, §7

Y307C mutant Pgp [11] = target: T2, Y307C mutant Pgp; assay: as above; details: Verapamil 50 µM, QZ59-SSS 1 µM, Valinomycin 10 µM, FSBA 1 mM
Experimental: as §6, §4, §7

F343C mutant Pgp [12] = target: T3, F343C mutant Pgp; assay: as above; details: Verapamil 50 µM, QZ59-SSS 1 µM, FSBA 1 mM
Experimental: as §6, §4, §7

F728C mutant Pgp [13] = target: T4, F728C mutant Pgp; assay: as above; details: Verapamil 50 µM, QZ59-SSS 1 µM, Valinomycin 10 µM, FSBA 1 mM
Experimental: as §6, §4, §7

[14] = target: T8, Y307C/Q725C/V982C mutant Pgp; assay: as above; details: Verapamil 50 µM, QZ59-SSS 1 µM, Valinomycin 10 µM, FSBA 1 mM
Experimental: as §6, §4, §7

Y307C/V982C mutant Pgp = Y307C/V982C mutant Pgp (Homo sapiens, UniProt P08183, C1074A/C1125A/C1227A/C137A/C431A/C717A/C956A/V982C/Y307C); assay: as above; details: Verapamil 50 µM, QZ59-SSS 1 µM, Valinomycin 10 µM, FSBA 1 mM
Experimental: as §6, §4, §7

Q725C/V982C mutant Pgp [15] = target: T5, Q725C/V982C mutant Pgp; assay: as above; details: Verapamil 50 µM, QZ59-SSS 1 µM, Valinomycin 10 µM, FSBA 1 mM
Experimental: as §6, §4, §7

F343C/V982C mutant Pgp [16] = target: T6, F343C/V982C mutant Pgp; assay: as above; details: Verapamil 50 µM, QZ59-SSS 1 µM, Valinomycin 10 µM, FSBA 1 mM
Experimental: as §6, §4, §7

V982C mutant Pgp [17] = target: T7, V982C mutant Pgp; assay: as above; details: Verapamil 50 µM, QZ59-SSS 1 µM, Valinomycin 10 µM, FSBA 1 mM
Experimental: as §6, §4, §7

cysless WT Pgp [18] = target: T9, cysless WT Pgp; assay: as above; details: Verapamil 50 µM, QZ59-SSS 1 µM, Valinomycin 10 µM, FSBA 1 mM
Experimental: as §6, §4, §7

T2 sequence (P08183 whole entry C137A/Y307C/C431A/C717A/C956A/C1074A/C1125A/C1227A): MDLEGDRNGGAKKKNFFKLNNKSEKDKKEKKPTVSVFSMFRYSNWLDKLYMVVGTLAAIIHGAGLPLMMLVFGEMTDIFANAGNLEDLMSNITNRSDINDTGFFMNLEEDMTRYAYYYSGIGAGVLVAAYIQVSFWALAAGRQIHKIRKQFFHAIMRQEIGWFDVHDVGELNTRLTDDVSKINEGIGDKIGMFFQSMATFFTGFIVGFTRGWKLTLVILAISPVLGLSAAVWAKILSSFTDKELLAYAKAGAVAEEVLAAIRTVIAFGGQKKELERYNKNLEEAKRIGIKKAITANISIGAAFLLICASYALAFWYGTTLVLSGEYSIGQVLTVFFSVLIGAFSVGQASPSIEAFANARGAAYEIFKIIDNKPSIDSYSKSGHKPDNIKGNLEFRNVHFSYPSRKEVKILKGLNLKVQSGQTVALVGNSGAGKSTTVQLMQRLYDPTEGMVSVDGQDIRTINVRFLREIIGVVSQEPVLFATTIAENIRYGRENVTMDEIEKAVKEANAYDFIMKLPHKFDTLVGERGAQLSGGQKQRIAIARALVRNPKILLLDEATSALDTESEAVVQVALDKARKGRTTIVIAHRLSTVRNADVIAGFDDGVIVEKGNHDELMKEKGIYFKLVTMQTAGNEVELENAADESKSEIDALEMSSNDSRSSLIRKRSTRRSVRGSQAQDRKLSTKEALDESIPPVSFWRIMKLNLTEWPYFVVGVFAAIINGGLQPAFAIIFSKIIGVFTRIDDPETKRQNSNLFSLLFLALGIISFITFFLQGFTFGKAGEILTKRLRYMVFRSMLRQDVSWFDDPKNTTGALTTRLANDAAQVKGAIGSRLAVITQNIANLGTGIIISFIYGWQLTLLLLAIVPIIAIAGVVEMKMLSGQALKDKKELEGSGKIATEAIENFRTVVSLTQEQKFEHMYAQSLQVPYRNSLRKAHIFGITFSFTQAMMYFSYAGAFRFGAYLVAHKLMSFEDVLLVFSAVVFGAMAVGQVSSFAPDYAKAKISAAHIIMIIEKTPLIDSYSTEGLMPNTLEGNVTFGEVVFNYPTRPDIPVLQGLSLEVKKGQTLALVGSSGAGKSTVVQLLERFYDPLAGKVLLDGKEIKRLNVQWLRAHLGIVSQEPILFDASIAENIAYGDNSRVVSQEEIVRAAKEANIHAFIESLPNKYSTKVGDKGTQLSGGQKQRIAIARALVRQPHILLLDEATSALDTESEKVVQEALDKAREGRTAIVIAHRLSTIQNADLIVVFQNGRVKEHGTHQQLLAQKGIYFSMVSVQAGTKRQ
T5 sequence (P08183 whole entry C137A/C431A/C717A/Q725C/C956A/V982C/C1074A/C1125A/C1227A): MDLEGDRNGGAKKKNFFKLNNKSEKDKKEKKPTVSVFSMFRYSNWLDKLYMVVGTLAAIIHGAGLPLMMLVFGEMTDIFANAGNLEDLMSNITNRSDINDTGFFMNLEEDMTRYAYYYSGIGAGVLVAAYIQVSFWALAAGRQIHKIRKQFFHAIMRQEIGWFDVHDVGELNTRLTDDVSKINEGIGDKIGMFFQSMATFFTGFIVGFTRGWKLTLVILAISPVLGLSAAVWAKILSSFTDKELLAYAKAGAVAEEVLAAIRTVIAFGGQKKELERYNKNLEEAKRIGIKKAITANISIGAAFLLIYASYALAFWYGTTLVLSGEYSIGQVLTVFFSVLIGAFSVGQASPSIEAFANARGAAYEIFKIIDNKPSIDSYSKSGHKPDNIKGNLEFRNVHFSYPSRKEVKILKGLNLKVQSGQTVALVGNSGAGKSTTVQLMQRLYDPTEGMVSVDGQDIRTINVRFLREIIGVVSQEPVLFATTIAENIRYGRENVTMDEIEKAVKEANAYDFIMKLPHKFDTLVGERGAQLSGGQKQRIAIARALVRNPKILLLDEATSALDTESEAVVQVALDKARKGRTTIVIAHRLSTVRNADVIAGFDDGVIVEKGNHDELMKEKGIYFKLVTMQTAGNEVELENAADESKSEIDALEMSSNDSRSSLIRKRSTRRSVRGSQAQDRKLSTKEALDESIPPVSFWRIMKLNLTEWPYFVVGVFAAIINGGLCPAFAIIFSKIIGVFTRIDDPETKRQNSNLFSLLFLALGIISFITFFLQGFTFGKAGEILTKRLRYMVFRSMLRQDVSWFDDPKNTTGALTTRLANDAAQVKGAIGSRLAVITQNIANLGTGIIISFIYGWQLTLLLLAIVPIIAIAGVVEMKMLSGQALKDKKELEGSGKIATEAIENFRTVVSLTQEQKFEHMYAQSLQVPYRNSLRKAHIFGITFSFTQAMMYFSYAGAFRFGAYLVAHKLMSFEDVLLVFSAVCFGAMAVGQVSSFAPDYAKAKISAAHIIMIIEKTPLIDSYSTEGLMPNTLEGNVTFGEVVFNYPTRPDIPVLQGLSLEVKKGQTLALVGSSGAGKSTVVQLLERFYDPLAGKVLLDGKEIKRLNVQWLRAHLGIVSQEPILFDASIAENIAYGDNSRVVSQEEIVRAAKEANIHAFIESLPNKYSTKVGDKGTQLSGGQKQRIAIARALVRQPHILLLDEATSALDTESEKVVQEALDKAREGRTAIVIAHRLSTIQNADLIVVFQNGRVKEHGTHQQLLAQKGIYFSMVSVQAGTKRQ
T9 sequence (P08183 whole entry C137A/C431A/C717A/C956A/C1074A/C1125A/C1227A): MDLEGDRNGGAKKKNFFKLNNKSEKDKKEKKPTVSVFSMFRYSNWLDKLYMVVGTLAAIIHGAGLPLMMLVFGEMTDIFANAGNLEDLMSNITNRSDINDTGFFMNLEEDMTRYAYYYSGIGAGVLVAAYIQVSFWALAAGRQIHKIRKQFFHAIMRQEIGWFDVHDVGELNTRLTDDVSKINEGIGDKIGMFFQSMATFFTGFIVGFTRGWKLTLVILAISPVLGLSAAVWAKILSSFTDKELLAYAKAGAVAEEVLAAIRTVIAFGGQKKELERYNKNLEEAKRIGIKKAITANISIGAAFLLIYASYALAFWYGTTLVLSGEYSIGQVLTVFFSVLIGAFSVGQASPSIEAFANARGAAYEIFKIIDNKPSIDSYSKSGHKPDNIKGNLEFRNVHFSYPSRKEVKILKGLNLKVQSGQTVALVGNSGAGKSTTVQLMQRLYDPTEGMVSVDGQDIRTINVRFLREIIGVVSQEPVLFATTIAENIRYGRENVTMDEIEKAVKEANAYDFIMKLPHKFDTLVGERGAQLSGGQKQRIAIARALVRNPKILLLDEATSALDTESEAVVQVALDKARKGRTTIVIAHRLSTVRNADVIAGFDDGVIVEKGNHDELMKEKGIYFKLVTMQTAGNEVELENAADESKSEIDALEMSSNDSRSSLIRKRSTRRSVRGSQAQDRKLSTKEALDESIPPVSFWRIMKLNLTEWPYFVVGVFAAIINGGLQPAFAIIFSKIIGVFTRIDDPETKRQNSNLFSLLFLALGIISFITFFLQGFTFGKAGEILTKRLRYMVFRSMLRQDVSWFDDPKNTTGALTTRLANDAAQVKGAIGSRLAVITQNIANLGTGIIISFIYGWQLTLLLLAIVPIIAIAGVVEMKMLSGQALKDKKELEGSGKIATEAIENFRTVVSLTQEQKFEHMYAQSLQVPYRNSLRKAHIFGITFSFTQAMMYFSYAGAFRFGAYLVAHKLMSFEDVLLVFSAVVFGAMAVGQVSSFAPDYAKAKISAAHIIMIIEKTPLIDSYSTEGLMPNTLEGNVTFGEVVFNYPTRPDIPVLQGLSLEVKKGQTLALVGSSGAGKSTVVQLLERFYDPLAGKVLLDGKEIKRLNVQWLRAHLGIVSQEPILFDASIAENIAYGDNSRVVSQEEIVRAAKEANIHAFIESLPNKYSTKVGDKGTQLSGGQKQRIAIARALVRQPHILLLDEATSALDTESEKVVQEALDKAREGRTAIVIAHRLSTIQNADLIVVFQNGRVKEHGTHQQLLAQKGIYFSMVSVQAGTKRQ
T3 sequence (P08183 whole entry C137A/F343C/C431A/C717A/C956A/C1074A/C1125A/C1227A): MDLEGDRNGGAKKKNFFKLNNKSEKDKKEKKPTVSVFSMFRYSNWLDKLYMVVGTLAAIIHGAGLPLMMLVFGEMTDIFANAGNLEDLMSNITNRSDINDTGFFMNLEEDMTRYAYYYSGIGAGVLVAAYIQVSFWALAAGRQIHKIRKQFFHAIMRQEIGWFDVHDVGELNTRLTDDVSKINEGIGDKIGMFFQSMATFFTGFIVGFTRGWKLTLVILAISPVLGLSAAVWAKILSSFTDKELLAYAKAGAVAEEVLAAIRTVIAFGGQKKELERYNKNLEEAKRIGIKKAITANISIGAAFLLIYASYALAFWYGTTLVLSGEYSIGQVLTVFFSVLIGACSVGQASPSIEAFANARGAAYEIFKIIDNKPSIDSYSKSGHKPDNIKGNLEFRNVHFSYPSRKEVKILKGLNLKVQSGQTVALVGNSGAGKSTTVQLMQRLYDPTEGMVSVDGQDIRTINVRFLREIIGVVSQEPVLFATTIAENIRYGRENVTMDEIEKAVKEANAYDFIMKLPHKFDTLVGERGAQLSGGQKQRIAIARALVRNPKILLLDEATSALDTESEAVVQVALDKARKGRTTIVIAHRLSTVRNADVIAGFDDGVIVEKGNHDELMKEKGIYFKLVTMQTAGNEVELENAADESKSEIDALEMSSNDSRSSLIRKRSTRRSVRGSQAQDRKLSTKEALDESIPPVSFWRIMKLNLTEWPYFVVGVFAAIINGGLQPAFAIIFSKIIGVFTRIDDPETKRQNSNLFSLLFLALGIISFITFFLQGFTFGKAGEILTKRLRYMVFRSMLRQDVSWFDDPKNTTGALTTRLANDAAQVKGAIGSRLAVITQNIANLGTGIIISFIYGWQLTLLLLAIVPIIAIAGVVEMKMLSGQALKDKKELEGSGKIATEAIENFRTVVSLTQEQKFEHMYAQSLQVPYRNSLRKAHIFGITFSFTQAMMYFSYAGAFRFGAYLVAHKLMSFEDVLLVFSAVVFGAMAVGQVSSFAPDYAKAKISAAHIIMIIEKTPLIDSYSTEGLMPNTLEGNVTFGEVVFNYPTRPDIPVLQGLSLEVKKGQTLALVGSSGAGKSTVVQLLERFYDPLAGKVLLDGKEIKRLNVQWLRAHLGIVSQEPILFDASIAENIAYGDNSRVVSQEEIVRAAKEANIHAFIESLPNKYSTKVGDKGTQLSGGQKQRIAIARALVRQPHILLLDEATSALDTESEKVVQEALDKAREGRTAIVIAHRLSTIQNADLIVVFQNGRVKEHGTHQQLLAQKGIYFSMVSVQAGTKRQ

COC(=O)c1ccccc1-c1c2ccc(=N)cc-2oc2cc(N)ccc12 [Rh123, rhodamine123]
Transport function (Q725C mutant Pgp [1]): 90-100%
Transport function (Y307C mutant Pgp [2]): 90-100%
Transport function (F343C mutant Pgp [3]): 90-100%
Transport function (F978C mutant Pgp): 90-100%
Transport function (F728C mutant Pgp [4]): 90-100%
Transport function (Q725C/V982C mutant Pgp [5]): 90-100%
Transport function (F343C/V982C mutant Pgp [6]): 90-100%
Transport function (V982C mutant Pgp [7]): 90-100%

COc1ccc(CCN(C)CCCC(C#N)(c2ccc(OC)c(OC)c2)C(C)C)cc1OC (stereo not drawn) [Verapamil, verapamil]
Stimulation of ATP hydrolysis (all mutant Pgps; all the mutants, Verapamil 50 µM): 2-4 fold

COc1cccc2c1C(=O)c1c(O)c3c(c(O)c1C2=O)C[C@@](O)(C(C)=O)C[C@@H]3O[C@H]1C[C@H](N)[C@H](O)[C@H](C)O1 [Dauno, daunorubicin]
Transport function (Q725C mutant Pgp [1]): 90-100%
Transport function (Y307C mutant Pgp [2]): 90-100%
Transport function (F343C mutant Pgp [3]): 90-100%
Transport function (F978C mutant Pgp): 90-100%
Transport function (F728C mutant Pgp [4]): 90-100%
Transport function (Q725C/V982C mutant Pgp [5]): 90-100%
Transport function (F343C/V982C mutant Pgp [6]): 90-100%
Transport function (V982C mutant Pgp [7]): 90-100%

CC(C)[C@@H]1NC(=O)c2csc(n2)[C@H](C(C)C)NC(=O)c2csc(n2)[C@H](C(C)C)NC(=O)c2csc1n2 [QZ59-SSS]
Inhibition of IAAP photo-labeling [8]: < 30%
IC50 (cysless WT Pgp [9]): 6 µM
Max Inhibition (%) of IAAP-labeling (cysless WT Pgp [9]): 72%
Modulation of ATP hydrolysis (all mutant Pgps; all mutant Pgps, inhibition measured in presence of verapamil 5 µM): stimulates ATP hydrolysis of the mutant Pgps with no exceptions

Nc1ncnc2c1ncn2[C@@H]1O[C@H](COC(=O)c2ccc(S(=O)(=O)F)cc2)[C@@H](O)[C@H]1O [FSBA, 5′-fluorosulfonylbenzoyl 5′-adenosine]
Inhibition of IAAP photo-labeling ([8]; Y307C/Q725C/V982C, at higher concentrations): < 30%
Max Inhibition (%) of IAAP-labeling (cysless WT Pgp [9]; Cysless WT, High-Five crude membranes): 85%
IC50 (cysless WT Pgp [9]; read-out: IC50 (µM), inhibition of IAAP-labeling, Cysless WT, High-Five crude membranes): 390 µM
ATP hydrolysis, Average (F728C/V982C mutant Pgp): 5 nmoles Pi/min/mg protein
ATP hydrolysis, Fold-stimulation (F728C/V982C mutant Pgp; relative to basal): 1.1
ATP hydrolysis, Average (Q725C mutant Pgp [10]): 10 nmoles Pi/min/mg protein
ATP hydrolysis, Fold-stimulation (Q725C mutant Pgp [10]; relative to basal): 2.0
ATP hydrolysis, Average (Y307C mutant Pgp [11]): 14 nmoles Pi/min/mg protein
ATP hydrolysis, Fold-stimulation (Y307C mutant Pgp [11]; relative to basal): 1.9
ATP hydrolysis, Average (F343C mutant Pgp [12]): 39 nmoles Pi/min/mg protein
ATP hydrolysis, Fold-stimulation (F343C mutant Pgp [12]; relative to basal): 2.1
ATP hydrolysis, Average (F728C mutant Pgp [13]): 11 nmoles Pi/min/mg protein
ATP hydrolysis, Fold-stimulation (F728C mutant Pgp [13]; relative to basal): 1.8
ATP hydrolysis, Average [14]: 6 nmoles Pi/min/mg protein
ATP hydrolysis, Average (Y307C/V982C mutant Pgp): 20 nmoles Pi/min/mg protein
ATP hydrolysis, Fold-stimulation (Y307C/V982C mutant Pgp; relative to basal): 2.1
ATP hydrolysis, Average (Q725C/V982C mutant Pgp [15]): 12 nmoles Pi/min/mg protein
ATP hydrolysis, Fold-stimulation (Q725C/V982C mutant Pgp [15]; relative to basal): 2.3
ATP hydrolysis, Average (F343C/V982C mutant Pgp [16]): 50 nmoles Pi/min/mg protein
ATP hydrolysis, Fold-stimulation (F343C/V982C mutant Pgp [16]; relative to basal): 2.7
ATP hydrolysis, Average (V982C mutant Pgp [17]): 28 nmoles Pi/min/mg protein
ATP hydrolysis, Fold-stimulation (V982C mutant Pgp [17]; relative to basal): 2.4
ATP hydrolysis, Average (cysless WT Pgp [18]): 52 nmoles Pi/min/mg protein
ATP hydrolysis, Fold-stimulation (cysless WT Pgp [18]; relative to basal): 2.4

Reference: publication PMC3857843, “Multiple Transport-Active Binding Sites Are Available for a Single Substrate on Human P-Glycoprotein (ABCB1)” (PLoS ONE, 2013)
